In one data set the test system is cleaved caspase-3. Description: Western analysis of cleaved caspase-3. Type of data set: cell-based, human. To be noted: hiPS cells under adherence condition. Here is the method:
Total protein was extracted with RIPA buffer (20 mM Tris-HCl, pH 7.5, 150 mM NaCl, 1 mM Na2EDTA, 1 mM EGTA, 1% NP-40, 1% sodium deoxycholate, 2.5 mM sodium pyrophosphate, 1 mM β-glycerophosphate, 1 mM Na3VO4, and protease inhibitors). Protein concentrations were determined by BCA Protein Assay kit (Pierce). An equal amount (20 μg) of protein was loaded in each lane, separated by 10% SDS/PAGE, and transferred onto a PVDF membrane (BioRad). The membrane was blocked in Odyssey blocking buffer (LI-COR Biotechnology), and subsequently incubated with primary antibodies against Oct3 (Santa Cruz Biotechnology), Nanog (Millipore), myosin IIA (Covance), myosin IIB (Covance), cleaved caspase-3 (Cell Signaling), or β-actin (Sigma) at 4° C. overnight followed by incubation with peroxidase-conjugated goat anti-mouse IgG or goat anti-rabbit IgG (Jackson ImmunoResearch, Inc.), and developed with ECL reagent (GE Healthcare).

Data set [1] concerns hiPS cells. Description: Cell growth assay (population doubling time). Type of data set: cell-based, human. The settings on record: hiPS cells on PDL in mTeSR, compound at 5 μM. The protocol: For the cell growth assay, hiPS or hES cells were plated at 2.5×10^4 cells/cm^2 on plates coated with PDL or Matrigel in mTeSR in the presence of blebbistatin at 5 μM or Y-27632 at 5 μM (PDL) or in the absence of compounds (Matrigel). Cells were harvested at the indicated time points, stained with trypan blue, and counted by the hemocytometer.

The subject of data set [2] is hiPS cells. In words: Attachment of hiPS cells on poly-D-lysine (PDL) in mTeSR. Type of data set: cell-based, human. The settings on record: no signs of defects in cell-cell adhesions. The source says: Myosin II controls cell-matrix contacts and detachment-induced apoptosis in hiPS and hiES cells. […] Similar results were obtained from the experiments using hES cells.

The subject of the next data set is Oct3/4 and Nanog. Description: Oct3/4 and Nanog expression by QPCR, Western analysis and immunocytochemistry. The format is cell-based, human. The settings on record: hES cells in mTeSR or hESm, different concentrations, 48 h. The protocol:
For immunocytochemistry, cells grown on culture vessels were fixed in 4% paraformaldehyde (USB Corporation). After washing with PBS/BSA, the samples were incubated with primary antibodies recognizing the target proteins at 4° C. overnight. The primary antibodies used in the study include Oct3 (BD Biosciences), myosin IIA (Covance), and myosin IIB (Covance). The samples were washed for three times, and incubated with appropriate secondary antibodies conjugated with Alexa Fluorophore (Invitrogen) at room temperature for 30 min. […]
QPCR. […] The extracted RNA sample was quantified by UV spectrophotometer, and qualified by the RNA Nano Lab chip (Agilent Technologies). […] Each cycle threshold (CT) value was determined by iQ5 optical system software (BioRad), and normalized by the β-actin expression level. […]
Total protein was extracted with RIPA buffer (20 mM Tris-HCl, pH 7.5, 150 mM NaCl, 1 mM Na2EDTA, 1 mM EGTA, 1% NP-40, 1% sodium deoxycholate, 2.5 mM sodium pyrophosphate, 1 mM β-glycerophosphate, 1 mM Na3VO4, and protease inhibitors). Protein concentrations were determined by BCA Protein Assay kit (Pierce). […]

Data set [3] has as its system hES or hiPS cells grown under the defined condition. Description: Teratoma formation in SCID/beige mice. The format is in vivo, mouse. To be noted: cells grown under blebbistatin/PDL for 20 passages, about 2×10^6 cells subcutaneously, 4 to 8 weeks. An excerpt: All animal-related protocols were approved by Institutional Animal Care and Use Committee. Cells (approximately 2×10^6 cells) grown under defined conditions for multiple passages with occasional freezing and thawing were subcutaneously injected into severe combined immunodeficient (SCID)/beige mice (Charles River Laboratories). After 4 to 8 weeks, the developed teratomas were excised, fixed in 4% paraformaldehyde or 10% formalin, and subjected to histological section preparations.

Data set [4] has as its system hiPS cells. In words: Defined culture on PDL coating in mTeSR (self-renewal over passages). Type of data set: cell-based, human. Here is the method:
Cell culture. Two independent hES cell lines, H9 (WiCell) and BGN01 (BresaGen), were examined. hiPS cells used in the study include iPS (Foreskin) Clone 1 (WiCell) and two independently derived hiPS cells from normal human dermal fibroblasts (NHDF) which have been characterized by a series of molecular and functional assays. For the regular feeder-free culture, hES or hiPS cells were grown on Matrigel (BD Biosciences)-coated plates in a defined medium, mTeSR (StemCell Technologies). Cells were regularly passaged by the standard method using dispase (Invitrogen) or trypsin-EDTA (Lonza). General stem cell culture techniques are described in Freshney et al., Culture of Human Stem Cells (Culture of Specialized Cells), John Wiley & Sons, 1992 (the disclosure of which is incorporated herein by reference for all purposes). mES cells used in the experiment include CJ7, E14, RW4 (a parental line of NMHCIIA^−/A^− mES cells), NMHCIIA^−/A^−, and NMHCIIB^−/B^− mES cells. Cells were maintained on either mitotically inactivated mouse embryonic fibroblasts or gelatin (Sigma)-coated dishes with the standard medium in the presence of leukemia inhibitory factor (LIF) at 1400 U/ml (Millipore). For the microscopic or immunofluorescent analysis, cells were plated at approximately 5000-10000 cells/cm^2. For the defined culture, cells were plated at approximately 10000 cells/cm^2 on plates freshly coated with PDL or PDL-precoated plates (BD Bioscience) in mTeSR supplemented with 2.5 to 5 μM of blebbistatin or Y-27632. Medium was changed every day or every other day depending on confluency. Cells were passaged by using trypsin-EDTA every 3 to 4 days.

For `Cc1ccc2c(c1)C(=O)C1(O)CCN(c3ccccc3)C1=N2` (centres unmarked) [blebbistatin, 1-Phenyl-1,2,3,4-tetrahydro-4-hydroxypyrrolo[2,3-b]-7-methylquinolin-4-one], the “Cleaved caspase-3 level by Western analysis” value with cleaved caspase-3 was “decreased”. Besides, the Population doubling time entry with hiPS cells [1] is reported as “approximately 32.1 h”. For the same compound, in the data set on hiPS cells [2], the “Minimum concentration supporting attachment of hiPS cells on PDL” value was determined as 2 µM. Moreover, the “Oct3/4 and Nanog expression” value in the data set with Oct3/4 and Nanog is “elevated levels of both transcription factors in a dose dependent manner”. For the same compound, the Teratoma histology result in data set [3] was “contain all three germ-layer derived differentiated tissues”. Moreover, in the data set with hiPS cells [4], the “Growth and cell survival rates compared with Y27632” value was “higher growth and cell survival rates than the cells treated with Y27632”. Besides, the “Cytokinesis defects such as multinucleated cells” value in the data set on hiPS cells [4] (2.5 μM, over 15 passages) was “without any signs of cytokinesis defects”. The “Minimum concentration sufficient for supporting cell-matrix interactions but not affecting cell-cell adhesions” value in the data set on hiPS cells [4] (PDL-coating, mTeSR) is 2.5 µM.

The values are drawn from US8609417B2, “Methods and compositions for stem cell cultures” (The Regents of the University of California, priority 2009, dated 2013).
